Assay results published in patent US20070208043A1, “Use of Serum Amyloid A Gene in Diagnosis and Treatment of Glaucoma and Identification of Anti-Glaucoma Agents” (ALCON, INC., priority 2003, published 2007).
“Also recorded” adds a separate entry of the source. Like-named read-outs stand apart in the source and are kept apart here. Blank lines part the entries; values can stand above or below the molecule they belong to.

Key:
plasma SAA concentration = details: in vivo; cited from earlier work
[1] = tested on: SAA induced IL-8 secretion in TM cells; assay: Inhibition of SAA induced IL-8 secretion in TM cells (IL-8 in media by ELISA); type: cell-based
Method: FIG. 11. Effect of MAP p38 kinase inhibitors on induction of IL-8 by SAA treatment (1 μg/ml) in TM cells. […] IL-8 was measured in the media by ELISA.
(§1) FIG. 12. […] NTM650-03, p9 or HL-60 cells were treated in serum-free DMEM for 4 hours with 1 μg/ml SAA and the indicated concentrations of SB202580. IL-8 was measured in the media by ELISA.
(§2) One pathway for upregulation of IL-8 is through activation of MAP kinases.

[2] = tested on: Adv.SAA2-induced IOP in mouse; assay: Mouse IOP after intravitreal injection of Adv.SAA2 + anti-CD40L; topical p38 MAPK inhibitor; details: topical 1% b.i.d.
Method: Contralateral eye of each animal was not injected. In addition to Adv, each animal received IP injection of anti-CD40L (0.5 mg/injection) on days −1, 0, 1, 2, 5, 9, & 14 to prolong the expression period of the Adv.SAA2. Mouse IOP was measured by Tonolab in a mask way. Mean of IOP for each eye was obtained from 18 to 30 measurements.

[3] = tested on: SAA stimulated IL-8 secretion in HL-60 cells; assay: Inhibition of SAA stimulated IL-8 secretion in HL-60 cells (IL-8 in media by ELISA); type: cell-based; details: for Times more effective than SB203580: HL60 cells, inhibition curves; for IC50: Homo sapiens, read-out: Calculated IC50, inhibition of SAA stimulated IL-8 secretion
Method: as §1
FIG. 13. […] IL-8 was measured in the media by ELISA.
as §2

HL-60 cells = assay: IL-8 secretion by HL-60 cells in response to rhSAA; type: cell-based; details: four hours, increasing concentrations
Method: FIG. 5. IL-8 secretion by HL-60 cells in response to increasing concentrations of rhSAA.
Cytokine-like properties of SAA include induction of IL-8 secretion by neutrophils. (Furlaneto and Campa, 2002; He et al. 2003). HL-60 cells, a promyelocytic cell line, was identified that responds to SAA with increased IL-8 secretion, and can be used for in vitro assays of SAA function. HL-60 cells were treated for four hours with increasing concentrations of recombinant human SAA, and IL-8 was measured in the media by ELISA. […] HL-60 cells can be used as a surrogate cell line for functional assays to identify agents that alter SAA function and expression levels.

[4] = tested on: perfused human anterior segments; assay: Perfusion cultured human eyes treated with recombinant SAA; details: 1 μg/mL, all five eyes
Method: FIG. 9. Effect of recombinant human Serum Amyloid A (rhSAA, 1 μg/mL; treatment started at time 0) on IOP of perfused human anterior segments.
FIG. 10. Effect of recombinant human Serum Amyloid A (rhSAA, 1 μg/mL; treatment started at time 0) on interleukin-8 (IL-8) level in the perfusate of perfused human anterior segments.
Five pairs of human eyes were perfused with media containing either recombinant SAA (1 μg/mL) (experimental eye) or an equivalent volume of vehicle (control eye). At the end of the culture period, 4 quadrants of each eye were examined by transmission electron microscopy to determine TM tissue viability. Perfusate of each eye was collected and used for ELISA measurement of IL-8 level. […] The change in IOP correlated with SAA-induced increase in interleukin-8 in the perfusates. All five pairs of eyes had acceptable post-perfusion TM viability scores.

[5] = read-out: % Inhibition of SAA induced IL-8 secretion
[6] = 10 μM, TM cells, read-out: % Inhibition of SAA induced IL-8 secretion
[7] = 50 μM, TM cells, read-out: % Inhibition of SAA induced IL-8 secretion
[8] = 1 μM, TM cells, read-out: % Inhibition of SAA induced IL-8 secretion

Molecule: Cc1cccc(Nc2cc(Cl)nc(SCC(=O)O)n2)c1C [WY 14643, (4-chloro-6-(2,3-xylidino)-2-pryrimidinylthiol)-acetic acid]
Plasma SAA concentration (plasma SAA concentration): reduces

Molecule: C[S+]([O-])c1ccc(-c2nc(-c3ccc(F)cc3)c(-c3ccncc3)[nH]2)cc1 (stereo not shown) [SB203580, 4-(4-fluorophenyl)-2-(4-methylsulfinylphenyl)-5-(4-pyridyl)-1H-imidazole]
Inhibition of SAA induced IL-8 expression (in words) ([1]; TM cells): most potent
inhibition at 1 µM [1, 5]: 16.3%
inhibition at 10 µM [1, 5]: 38.1%
inhibition at 25 µM [1, 5]: 61%
inhibition at 50 µM [1, 5]: 73.8%
inhibition at 100 µM [1, 5]: 98.7%

Effect on iris hyperemia in the injected eyes ([2]; Ad.SAA2-injected eyes): did not affect hyperemia
IC50 ([3]; HL-60, 4 h): 300 nM
Molecule: Fc1ccc(-c2c(-c3ccncc3)[nH]c3cccnc23)cc1 [4-azaindole, 3-(4-fluorophenyl)-2-(pyridin-4-yl)-1H-pyrrolo[3,2-b]pyridine]
Effect on IOP in the non-injected eyes [2]: did not affect IOP
Effect on Ad.SAA2-induced ocular hypertension (IOP) ([2]; days -1 to 7 and 13 to 17, Ad.SAA2 2×10^7 pfu/eye + antiCD40L): significantly inhibited; also recorded: blocked
Time to lower IOP to baseline after drug administration was resumed at day 13 ([2]; Ad.SAA2-injected mouse eyes): 3 days
Inhibition of SAA induced IL-8 expression (in words) ([1]; TM cells): most potent
inhibition at 10 µM [1, 5]: 22.6%
inhibition at 50 µM [1, 5]: 94.3%
Times more effective than SB203580 [3]: approximately 10 times

IC50 ([3]; HL-60 cells, serum-free DMEM, 4 hours, 1 μg/ml SAA): 500 nM
Molecule: Cc1ccc(-n2nc(C(C)(C)C)cc2NC(=O)Nc2ccc(OCCN3CCOCC3)c3ccccc23)cc1 [BIRB-796, 1-(5-tert-butyl-2-p-tolyl-2H-pyrazol-3-yl)-3(4-(2-morpholin-4-yl-ethoxy)naph-thalen-1-yl)urea]
inhibition at 10 µM [1, 6]: 28.9%
inhibition at 50 µM [1, 7]: 78.1%
Inhibition of SAA induced IL-8 expression (in words) ([1]; TM cells): most potent
Times more effective than SB203580 [3]: approximately 10 times

Molecule: COc1cccc(-c2cc(=O)c3ccccc3o2)c1N [PD98059, 2′-amino-3′-methoxyflavone]
inhibition at 50 µM [1, 7]: 34%

Molecule: Oc1ccc(-c2nc(-c3ccc(F)cc3)c(-c3ccncc3)[nH]2)cc1 [SB202190, 4-[4-(4-fluorophenyl)-5-(4-pyridinyl)-1H-imidazol-2-yl]phenol]
inhibition at 1 µM [1, 8]: 17.2%
inhibition at 10 µM [1, 6]: 43.3%
inhibition at 50 µM [1, 7]: 38.2%

Molecule: N#CC(=C(/N)Sc1ccccc1N)/C(C#N)=C(/N)Sc1ccccc1N [U0126, 1,4-diamino-2,3-dicyano-1,4-bis(2-aminophynyltio)butadiene]
inhibition at 1 µM [1, 8]: 30.9%
inhibition at 10 µM [1, 6]: 50.6%
inhibition at 50 µM [1, 7]: 53%

B1: recombinant SAA: recombinant human Serum Amyloid A protein (protein, UniProt P0DJI8 19-122, looked up)
Serum amyloid A-1 protein: RSFFSFLGEAFDGARDMWRAYSDMREANYIGSDKYFHARGNYDAAKRGPGGAWAAEVITDARENIQRFFGHGAEDSLADQAANEWGRSGKDPNHFRPAGLPEKY
IL-8 secretion (HL-60 cells): increased in a dose dependent manner
IL-8 level in perfusate [4]: elevated IL-8 level
IOP of perfused human eyes ([4]; within 24 h of treatment): elevated IOP
